In PubChem BioAssay (NCI):
“And” between values parts separate entries of the source, which are not always exact repeats. Equal values may be shown once.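 Test compounds were applied to cells in 96-well plates for 48 hours at 5 doses. GI50 is the concentration that inhibits growth by half. Definition used: TGI = concentration required for complete inhibition of growth.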

Experiments:
Test in all cases: DTP human tumour cell line panel, 48 h
SF-295 CNS = tested on: SF-295 CNS
SNB-19 CNS = tested on: SNB-19 CNS
T-47D breast = tested on: T-47D breast
A498 renal = tested on: A498 renal
MCF7 breast = tested on: MCF7 breast
NCI-H460 lung = tested on: NCI-H460 lung
HL-60(TB) leukemia = tested on: HL-60(TB) leukemia
MDA-MB-231 breast = tested on: MDA-MB-231 breast
MOLT-4 leukemia = tested on: MOLT-4 leukemia
A549 NSCLC = tested on: A549 NSCLC

Row | Compound | TGI (SF-295 CNS) | TGI (SNB-19 CNS) | TGI (T-47D breast) | TGI (A498 renal) | TGI (MCF7 breast) | TGI (NCI-H460 lung) | TGI (HL-60(TB) leukemia) | TGI (MDA-MB-231 breast) | TGI (MOLT-4 leukemia) | TGI (A549 NSCLC) | GI50 (SF-295 CNS) | GI50 (SNB-19 CNS) | GI50 (T-47D breast) | GI50 (A498 renal) | GI50 (MCF7 breast) | GI50 (NCI-H460 lung) | GI50 (HL-60(TB) leukemia) | GI50 (MDA-MB-231 breast) | GI50 (MOLT-4 leukemia) | GI50 (A549 NSCLC)
1 | Cc1occc1C(=S)Nc1ccc(Cl)c(C(=O)OC(C)C2CC2)c1 (stereo not drawn) | 39 µM | 39 µM | > 100 µM | 48.2 µM | 57.3 µM | > 100 µM | 54.1 µM | 45.7 µM | 57.5 µM | > 100 µM |  |  |  |  |  |  |  |  |  | 
2 | CCNC(=O)c1cc2c(-c3cc(C(C)(C)O)ccc3Oc3c(C)cc(F)cc3C)cn(C)c(=O)c2[nH]1 | 11 µM | 14.2 µM | 18 µM | 4.84 µM | 12.9 µM | 17.6 µM | 4.88 µM | 15.9 µM | 10.2 µM | 14.6 µM | 2.19 µM | 2.05 µM | 1.08 µM | 0.898 µM | 0.521 µM | 3.3 µM | 0.393 µM | 1.08 µM | 2.36 µM | 2.1 µM
3 | O=[N+]([O-])c1c(Br)sc(Br)c1[N+](=O)[O-] | 28.6 µM | 27.9 µM | 4.38 µM | 26 µM | 7.65 µM | 28.1 µM | 6.65 µM | 6.19 µM | 5.35 µM | 41.5 µM | 14.2 µM | 13.4 µM | 1.84 µM | 13.2 µM | 2.2 µM | 6.67 µM | 2.4 µM | 2.32 µM | 1.01 µM | 13.7 µM
4 | O=C1c2ccccc2C(=O)c2c1ccc(C1C(=O)c3ccccc3C1=O)c2-c1c(C2C(=O)c3ccccc3C2=O)ccc2c1C(=O)c1ccccc1C2=O | > 100 µM | > 100 µM | > 100 µM | > 100 µM | > 100 µM | > 100 µM | > 100 µM | > 100 µM | 82.5 µM | > 100 µM |  |  |  |  |  |  |  |  |  | 
5 | COC(=O)C1=C(C)NC(C)=C(C(=O)OC)C1/C=C(Cl)/C=C/c1ccccc1 | 38.6 µM | > 100 µM | > 100 µM | 36 µM | 78.5 µM | 45.4 µM | 41.2 µM | 36.7 µM | 41 µM | > 100 µM | 17.3 µM | 37.7 µM | 42.9 µM | 16.8 µM | 24.4 µM | 18.6 µM | 17.8 µM | 17.9 µM | 18.4 µM | 28.8 µM
6 | O=C(O)c1cccc(N=Nc2c(S(=O)(=O)O)ccc3c2C(=O)c2ccccc2C3=O)c1O | > 100 µM | > 100 µM | > 100 µM | > 100 µM | > 100 µM | > 100 µM | > 100 µM | > 100 µM | > 100 µM | > 100 µM |  |  |  |  |  |  |  |  |  | 
7 | O=C(/C=C/c1cc([N+](=O)[O-])ccc1Cl)c1ccccc1 | 49.6 µM | 28.3 µM | > 100 µM | 26.9 µM | 17.4 µM | 33.7 µM | 96.4 µM | 70.7 µM | > 100 µM | 92.9 µM | 15.6 µM | 13.3 µM | 27.9 µM | 12.8 µM | 2.76 µM | 14.1 µM | 32 µM | 19.3 µM | 21.1 µM | 22 µM
8 | COc1cc2c3c(n(CCCI)c(=O)c2cc1OC)-c1cc2c(cc1C3=O)OCO2 | > 100 µM | > 100 µM | > 100 µM | > 100 µM | 6.01 µM | > 100 µM | > 100 µM | > 100 µM | > 100 µM | > 100 µM | 0.776 µM | > 100 µM | > 100 µM | 6.79 µM | 0.404 µM | 0.272 µM | 1.08 µM | 18.7 µM | 0.126 µM | 2.5 µM
9 | N#Cc1c(N)nc(N2CCOCC2)c(C#N)c1-c1cccnc1 | > 100 µM | > 100 µM | 66.7 µM | 80.8 µM | > 100 µM | > 100 µM | > 100 µM | > 100 µM | > 100 µM | > 100 µM | 44.4 µM | 77.2 µM | 34 µM | 27.5 µM | 55.8 µM | > 100 µM | 95.6 µM | 27.6 µM | > 100 µM | > 100 µM
10 | CC(=Nc1ccccc1)C1=C(O)C(Cc2ccccc2)NC1=O (stereo not drawn) | 0.0721 µM | > 100 µM | > 100 µM | 0.259 µM | > 100 µM | 1.26 µM | 0.0671 µM | > 100 µM | > 100 µM | > 100 µM | 0.0238 µM | 0.0765 µM | > 100 µM | 0.0307 µM | 0.0367 µM | 0.0375 µM | 0.0265 µM | 0.224 µM | 0.0753 µM | 0.052 µM
11 | NC(=O)c1ccc2nc(-c3ccc(Oc4ccc(Cl)cc4)cc3)[nH]c2c1 | > 75 µM | > 75 µM and 52.6 µM | > 75 µM and 20.7 µM | 75 µM and 30.1 µM | 75 µM and 23.9 µM | 75 µM and 32.7 µM | 58.7 µM and 41.2 µM | > 75 µM and 36.3 µM | 75 µM and 33.3 µM | 75 µM and 28 µM | > 75 µM | > 75 µM and 22.5 µM |  | 21.2 µM and 15.7 µM | 33.1 µM and 6.4 µM | 23.4 µM and 14.1 µM | 12.4 µM and 17.3 µM | > 75 µM and 18.8 µM | 28.6 µM and 11.5 µM | 49.8 µM and 10.4 µM
12 | COc1cc(/C=C/C(=O)c2ccc(NC(=O)CN3CCN(c4cc5c(cc4F)c(=O)c(C(=O)O)cn5C4CC4)CC3)cc2)cc(OC)c1OC | 3.69 µM | > 59.5 µM | > 57 µM | 2.83 µM | > 100 µM |  | > 29.8 µM | 6.36 µM | > 100 µM | 2.14 µM | 0.98 µM | 2.71 µM | 1.67 µM | 0.825 µM | 0.381 µM | 0.497 µM | 1.75 µM | 0.712 µM | 1.27 µM | 0.368 µM
13 | CCC1CCc2nc3sc(C(=O)Nc4cccc(F)c4)c(N)c3cc2C1 (stereo not drawn) | > 100 µM | > 100 µM | > 100 µM | > 100 µM | > 100 µM | > 100 µM | > 100 µM | > 100 µM | > 100 µM | > 100 µM | 0.901 µM | > 100 µM | > 100 µM | 0.602 µM | 0.313 µM | > 100 µM | 0.343 µM | > 100 µM | 39.8 µM | > 100 µM
14 | COc1ccc2c(c1)n([O-])c1ccccc1[n+]2=O | > 100 µM and 48.6 µM | > 100 µM and 89.6 µM | > 100 µM and 22.6 µM | > 100 µM and 60.4 µM | > 100 µM and 36 µM | > 100 µM and 34.3 µM | > 100 µM | > 100 µM | > 100 µM | > 100 µM and 44.7 µM |  | 51.6 µM and 20 µM |  | 82.6 µM and 18.3 µM | 20.3 µM and 8.97 µM | 16.8 µM and 5.54 µM | 45.2 µM and 4.54 µM |  |  | 
15 | COc1ccc2c(c1)C(=O)c1c-2c(Nc2ccc(Cl)cc2)nc2ccccc12 | 46.6 µM | 44 µM | > 100 µM | 18.9 µM | > 100 µM | > 100 µM | > 100 µM | 18.9 µM | > 100 µM | 39.7 µM | 16.7 µM | 14.4 µM | 17.8 µM | 5.01 µM | > 100 µM | > 100 µM | > 100 µM | 4.46 µM | 27.5 µM | 13.3 µM
